Read-outs that look alike come from different tables or passages of the source.
Experiment: Solvent solubility screen of Compound A (aliquot addition, HPLC of saturated solutions)
Format: physicochemical
Parameters: key to XRPD: A: Amorphous; P1: Pattern 1; P2: Pattern 2; *Poorly crystalline; + p1: some pattern 1 peaks
Details: for XRPD: solid from solubility screen
Protocol: A known volume aliquot (typically 5 volumes) of solvent was added to approximately 5 mg of Compound A. See Table 14 for the selected solvents for the solvent solubility screen.
Between each addition, the mixture was checked for dissolution and where no dissolution was apparent, the mixture was heated to ca. 40° C. and checked again. This procedure was continued until dissolution was observed or until 100 volumes of solvent had been added.
Where dissolution was not observed, solids were isolated centrifugally and analyzed by XRPD. The saturated solutions were analyzed by HPLC to obtain the solubility.

solubility (1,4-dioxane, organic solvent or mixture, thermodynamic from solid, 1,4-Dioxane, read-out: Approximate Solubility): 100000 µg/mL
solubility (1,4-dioxane, organic solvent or mixture, thermodynamic from solid, 1,4-Dioxane, read-out: Approximate solubility): ~100000 µg/mL
solubility (1,4-dioxane, organic solvent or mixture, thermodynamic from solid, 1,4-dioxane, read-out: solubility): > 100000 µg/mL
solubility (1-butanol, 40 °C, organic solvent or mixture, thermodynamic from solid, 1-Butanol, read-out: Approximate Solubility): 188 µg/mL
solubility (1-propanol, 40 °C, organic solvent or mixture, thermodynamic from solid, 1-Propanol, read-out: Approximate Solubility): 232 µg/mL
solubility (2-Butanone (MEK), 40 °C, organic solvent or mixture, thermodynamic from solid, 2-Butanone (MEK), read-out: Approximate Solubility): 2130 µg/mL
solubility (2-Ethoxyethanol, 40 °C, organic solvent or mixture, thermodynamic from solid, 2-Ethoxyethanol, read-out: Approximate Solubility): 1550 µg/mL
solubility (2-Methyl THF, 40 °C, organic solvent or mixture, thermodynamic from solid, 2-Methyl THF, read-out: Approximate Solubility): 2890 µg/mL
solubility (2-Propanol, 40 °C, organic solvent or mixture, thermodynamic from solid, 2-Propanol, read-out: Approximate Solubility): 205 µg/mL
solubility (2-propanol:water (90:10% v/v), 40 °C, organic solvent or mixture, thermodynamic from solid, 2-Propanol:Water (90:10% v/v), read-out: Approximate Solubility): 186 µg/mL
solubility (3-Methyl-1-butanol, 40 °C, organic solvent or mixture, thermodynamic from solid, 3-Methyl-1-butanol, read-out: Approximate Solubility): 1220 µg/mL
solubility (Acetone, 40 °C, organic solvent or mixture, thermodynamic from solid, Acetone, read-out: Approximate Solubility): 2730 µg/mL
solubility (Acetonitrile, 40 °C, organic solvent or mixture, thermodynamic from solid, Acetonitrile, read-out: Approximate Solubility): 995 µg/mL
solubility (Anisole, organic solvent or mixture, thermodynamic from solid, Anisole, read-out: Approximate Solubility): 25000 µg/mL
solubility (Butyl acetate, 40 °C, organic solvent or mixture, thermodynamic from solid, Butyl acetate, read-out: Approximate Solubility): 209 µg/mL
solubility (DCM, organic solvent or mixture, thermodynamic from solid, DCM, read-out: Approximate solubility): ~50000 µg/mL
solubility (DCM, organic solvent or mixture, thermodynamic from solid, DCM, read-out: solubility): 50000 to 100000 µg/mL
solubility (DCM:methanol (50:50% v/v), organic solvent or mixture, thermodynamic from solid, DCM:methanol (50:50% v/v), read-out: solubility): 50000 to 100000 µg/mL
solubility (DCM:methanol (75:25% v/v), organic solvent or mixture, thermodynamic from solid, DCM:methanol (75:25% v/v), read-out: solubility): > 100000 µg/mL
solubility (DMA, organic solvent or mixture, thermodynamic from solid, DMA, read-out: solubility): > 100000 µg/mL
solubility (DMF, organic solvent or mixture, thermodynamic from solid, DMF, read-out: solubility): > 100000 µg/mL
solubility (DMSO, organic solvent or mixture, thermodynamic from solid, DMSO, read-out: solubility): > 100000 µg/mL
solubility (Dichloromethane, organic solvent or mixture, thermodynamic from solid, Dichloromethane, read-out: Approximate Solubility): 50000 µg/mL
solubility (N,N′-dimethylacetamide, organic solvent or mixture, thermodynamic from solid, N,N′-Dimethylacetamide, read-out: Approximate Solubility): 100000 µg/mL
solubility (N,N′-dimethylformamide, organic solvent or mixture, thermodynamic from solid, N,N′-Dimethylformamide, read-out: Approximate Solubility): 100000 µg/mL
solubility (N-methylpyrrolidone, organic solvent or mixture, thermodynamic from solid, N-Methylpyrrolidone, read-out: Approximate Solubility): 50000 µg/mL
solubility (NMP, organic solvent or mixture, thermodynamic from solid, NMP, read-out: solubility): 50000 to 100000 µg/mL
solubility (THF, organic solvent or mixture, thermodynamic from solid, THF, read-out: Approximate solubility): ~50000 µg/mL
solubility (THF, organic solvent or mixture, thermodynamic from solid, THF, read-out: solubility): 50000 to 100000 µg/mL
solubility (THF:water (98:2% v/v), organic solvent or mixture, thermodynamic from solid, THF:water (98:2% v/v), read-out: solubility): 50000 to 100000 µg/mL
solubility (acetone:water (90:10% v/v), 40 °C, organic solvent or mixture, thermodynamic from solid, Acetone:Water (90:10% v/v), read-out: Approximate Solubility): 5680 µg/mL
solubility (acetonitrile:water (75:25% v/v), 40 °C, organic solvent or mixture, thermodynamic from solid, Acetonitrile:Water (75:25% v/v), read-out: Approximate Solubility): 1050 µg/mL
solubility (anisole, organic solvent or mixture, thermodynamic from solid, anisole, read-out: solubility): 25000 to 50000 µg/mL
solubility (dichloromethane:methanol (50:50% v/v), organic solvent or mixture, thermodynamic from solid, Dichloromethane:Methanol (50:50% v/v), read-out: Approximate Solubility): 50000 µg/mL
solubility (dichloromethane:methanol (50:50% v/v), organic solvent or mixture, thermodynamic from solid, Dichloromethane:Methanol (50:50% v/v), read-out: Approximate solubility): ~50000 µg/mL
solubility (dichloromethane:methanol (75:25% v/v), organic solvent or mixture, thermodynamic from solid, Dichloromethane:Methanol (75:25% v/v), read-out: Approximate Solubility): 100000 µg/mL
solubility (diethyl ether, 40 °C, organic solvent or mixture, thermodynamic from solid, Diethyl ether, read-out: Approximate Solubility): 2 µg/mL
solubility (dimethylsulfoxide, organic solvent or mixture, thermodynamic from solid, Dimethylsulfoxide, read-out: Approximate Solubility): 100000 µg/mL
solubility (ethanol, 40 °C, organic solvent or mixture, thermodynamic from solid, Ethanol, read-out: Approximate Solubility): 276 µg/mL
solubility (ethanol:water (50:50% v/v), 40 °C, aqueous with cosolvent or surfactant or cyclodextrin, thermodynamic from solid, Ethanol:Water (50:50% v/v), read-out: Approximate Solubility): 19.2 µg/mL
solubility (ethyl acetate, 40 °C, organic solvent or mixture, thermodynamic from solid, Ethyl acetate, read-out: Approximate Solubility): 444 µg/mL
solubility (ethyl formate, 40 °C, organic solvent or mixture, thermodynamic from solid, Ethyl formate, read-out: Approximate Solubility): 1010 µg/mL
solubility (heptane, 40 °C, organic solvent or mixture, thermodynamic from solid, Heptane, read-out: Approximate Solubility): 1.7 µg/mL
solubility (isopropyl acetate, organic solvent or mixture, thermodynamic from solid, Isopropyl acetate, read-out: Approximate Solubility): 174 µg/mL
solubility (methanol, organic solvent or mixture, thermodynamic from solid, Methanol, read-out: Approximate Solubility): 437 µg/mL
solubility (methylisobutyl ketone, organic solvent or mixture, thermodynamic from solid, Methylisobutyl ketone, read-out: Approximate Solubility): 530 µg/mL
solubility (organic solvent or mixture, thermodynamic from solid, remaining 25 solvent systems tested, read-out: solubility): < 5000 µg/mL
XRPD (1,4-Dioxane): A
XRPD (1-Butanol): P1
XRPD (1-Propanol): P1
XRPD (2-Butanone (MEK)): P1
XRPD (2-Ethoxyethanol): P1
XRPD (3-Methyl-1-butanol): A
XRPD (Acetone): P1
XRPD (Acetonitrile:Water (75:25% v/v)): A
XRPD (Butyl acetate): P1
XRPD (Dichloromethane): A
XRPD (Dichloromethane:Methanol (50:50% v/v)): A
XRPD (Dichloromethane:Methanol (75:25% v/v)): A
XRPD (Ethanol): P1
XRPD (Ethyl acetate): P1
XRPD (Heptane): A
XRPD (Toluene): A
XRPD (Water): A
XRPD (tert-Butylmethyl ether): A
solubility (tert-Butylmethyl ether, organic solvent or mixture, thermodynamic from solid, tert-Butylmethyl ether, read-out: Approximate Solubility): 108 µg/mL
solubility (tetrahydrofuran, organic solvent or mixture, thermodynamic from solid, Tetrahydrofuran, read-out: Approximate Solubility): 50000 µg/mL
solubility (tetrahydrofuran:water (98:2% v/v), organic solvent or mixture, thermodynamic from solid, Tetrahydrofuran:Water (98:2% v/v), read-out: Approximate Solubility): 50000 µg/mL
solubility (tetrahydrofuran:water (98:2% v/v), organic solvent or mixture, thermodynamic from solid, Tetrahydrofuran:Water (98:2% v/v), read-out: Approximate solubility): ~50000 µg/mL
solubility (toluene, organic solvent or mixture, thermodynamic from solid, Toluene, read-out: Approximate Solubility): 29.8 µg/mL
solubility (water, thermodynamic from solid, Water, read-out: Approximate Solubility): 0.5 µg/mL
Compound: COc1cc(O[C@H]2C(C)(C)[C@H](NC(=O)c3ccc(N4CCC(CN5CCN(c6ccc(C(=O)N[C@H]7CCC(=O)NC7=O)c(F)c6)CC5)CC4)cc3)C2(C)C)ccc1C#N [Compound A, 4-(4-((1-(4-(((1R,3R)-3-(4-cyano-3-methoxyphenoxy)-2,2,4,4-tetramethylcyclobutyl)carbamoyl)phenyl)piperidin-4-yl)methyl)piperazin-1-yl)-N—((S)-2,6-dioxopiperidin-3-yl)-2-fluorobenzamide]

Source: patent US20240336566A1, “CRYSTALLINE FORMS OF A COMPOUND FOR THE TARGETED DEGRADATION OF THE ANDROGEN RECEPTOR” (Arvinas Operations, Inc., priority 2023, published 2024)
